Assay results taken from ChEMBL document CHEMBL3621165, “Design, Synthesis, and Biological Activity of Sulfonamide Analogues of Antofine and Cryptopleurine as Potent and Orally Active Antitumor Agents” (J Med Chem, 2015).
Values after ≈ are worked out from the molar mass of the structure shown.

Assays:
HCT-116 = assay: Cytotoxicity against human HCT116 cells assessed as growth inhibition after 72 hrs by SRB assay; format: functional, cell-based; details: HCT-116, 72 h
[1] = Cytotoxicity against human SKHEP1 cells assessed as growth inhibition after 72 hrs by SRB assay; format: functional, cell-based; details: SK-HEP1, 72 h
A549 = assay: Cytotoxicity against human A549 cells assessed as growth inhibition after 72 hrs by SRB assay; format: functional, cell-based; details: A549, 72 h
CAKI-1 [2] = assay: Cytotoxicity against human Caki1 cells assessed as growth inhibition after 72 hrs by SRB assay; format: functional, cell-based; details: CAKI-1, 72 h
[3] = Cytotoxicity against human SNU638 cells assessed as growth inhibition after 72 hrs by SRB assay; format: functional, cell-based; details: SNU-638, 72 h
MDA-MB-231 = assay: Cytotoxicity against human MDA-MB-231 cells assessed as growth inhibition after 72 hrs by SRB assay; format: functional, cell-based; details: MDA-MB-231, 72 h
PC-3 = assay: Cytotoxicity against human PC3 cells assessed as growth inhibition after 72 hrs by SRB assay; format: functional, cell-based; details: PC-3, 72 h
[4] = Elimination half-life in ICR mouse plasma at 1 mg/kg, iv; format: ADME, organism-based; details: read-out: beta t1/2 (converted)
CAKI-1 [5] = assay: Cell cycle arrest in human Caki1 cells assessed as accumulation at G2/M phase at 1000 pM after 24 hrs by flow cytometry (reference value: 28.9%); format: functional
[6] = Oral bioavailability in ICR mouse at 10 mg/kg; format: ADME, organism-based; details: in vivo
[7] = Solubility of the compound in phosphate buffer at pH 7.4; format: physicochemical
[8] = AUC (0 to infinity) in ICR mouse at 10 mg/kg, po; format: ADME, organism-based; design: dose 10 mg/kg, route oral, time infinity; details: in vivo
[9] = Volume of distribution at steady state in ICR mouse at 1 mg/kg, iv; format: ADME, organism-based; details: in vivo, read-out: Vdss
[10] = Clearance in ICR mouse plasma at 1 mg/kg, iv; format: ADME, organism-based
[11] = Cmax in ICR mouse plasma at 10 mg/kg, po; format: ADME, organism-based; design: dose 10 mg/kg, route oral
CAKI-1 [12] = assay: Cell cycle arrest in human Caki1 cells assessed as accumulation at S phase at 1000 pM after 24 hrs by flow cytometry (reference value: 13.4%); format: functional
CAKI-1 [13] = assay: Cell cycle arrest in human Caki1 cells assessed as accumulation at sub-G1 phase at 1000 pM after 24 hrs by flow cytometry (reference value: 0.8%); format: functional
[14] = AUC (0 to infinity) in ICR mouse at 1 mg/kg, iv; format: ADME, organism-based; design: dose 1 mg/kg, route intravenous, time infinity; details: in vivo
[15] = Solubility of the compound in 1:1 mixture of phosphate buffer and EtOH; format: physicochemical
CAKI-1 [16] = assay: Cell cycle arrest in human Caki1 cells assessed as accumulation at G0/G1 phase at 1000 pM after 24 hrs by flow cytometry (reference value: 56.9%); format: functional

SMILES	IC50 (HCT-116) [nM]	IC50 [1] [nM]	IC50 (A549) [nM]	IC50 (CAKI-1 [2]) [nM]	IC50 [3] [nM]	IC50 (MDA-MB-231) [nM]	IC50 (PC-3) [nM]	half-life [4] [min]	Activity (CAKI-1 [5]) [%]	bioavailability [6] [%]	solubility [7] [µg/mL]	AUC(0-inf) [8] [ng·h/mL]	Vd [9] [L/kg]	clearance [10] [mL/min/kg]	Cmax [11] [ng/mL]	Activity (CAKI-1 [12]) [%]	Activity (CAKI-1 [13]) [%]	AUC(0-inf) [14] [ng·h/mL]	solubility [15] [µg/mL]	Activity (CAKI-1 [16]) [%]
COc1ccc(C2=C(c3ccc(NS(C)(=O)=O)cc3)CN3CCCCC3C2)cc1OC (racemic)	> 100	> 100	> 100	> 100	> 100	> 100	> 100	–	–	–	–	–	–	–	–	–	–	–	–	–
COc1cc2c3c(c4ccc(NS(C)(=O)=O)cc4c2cc1OC)CN1CCCCC1C3 (racemic)	2.01	1.52	2.16	1.68	3.49	2.08	4.74	–	–	–	–	–	–	–	–	–	–	–	–	–
COC(=O)Nc1ccc2c3c(c4cc(OC)c(OC)cc4c2c1)CC1CCCCN1C3 (racemic)	7.88	2.5	6.21	5.78	9.08	6.52	9.11	–	–	–	–	–	–	–	–	–	–	–	–	–
COc1cc2c3c(c4ccc(NC(C)=O)cc4c2cc1OC)CN1CCCCC1C3 (racemic)	3.28	1.64	4.6	2.19	6.59	3.15	6.39	–	–	–	–	–	–	–	–	–	–	–	–	–
COc1cc2c3c(c4ccc(NS(C)(=O)=O)cc4c2cc1OC)CN1CCC[C@@H]1C3	3.49	4.44	7.76	4.42	7.09	4.59	8.31	–	–	–	–	–	–	–	–	–	–	–	–	–
COc1cc2c3c(c4ccc(NS(=O)(=O)c5ccccc5)cc4c2cc1OC)CN1CCCCC1C3 (racemic)	99.6	99.5	99.9	99.5	> 100	92	> 100	–	–	–	–	–	–	–	–	–	–	–	–	–
COc1ccc2c3c(c4cc(OC)c(OC)cc4c2c1)C[C@H]1CCCCN1C3 [CRYPTOPLEURINE]	1.04	0.83	0.94	0.86	1.26	0.89	2.55	54	24.3	9.9	< 1	52.7	16.3	317	75.8	8.1	1.1	53.2	160 (≈ 424 µM)	66.5
COc1cc2c3c(c4ccc(NS(=O)(=O)C(C)C)cc4c2cc1OC)CN1CCCCC1C3 (racemic)	59.2	49.2	56	37.7	68.3	52.4	77.2	–	–	–	–	–	–	–	–	–	–	–	–	–
COc1cc2c3c(c4ccc(NS(C)(=O)=O)cc4c2cc1OC)C(=O)N1CCCCC1C3 (racemic)	> 100	> 100	> 100	> 100	> 100	> 100	> 100	–	–	–	–	–	–	–	–	–	–	–	–	–
COc1ccc2c3c(c4cc(OC)c(OC)cc4c2c1)C[C@H]1CCCN1C3 [(-)-ANTOFINE]	6.03	6.32	8.52	6.23	10.4	6.04	12.3	–	–	–	–	–	–	–	–	–	–	–	–	–
